Tested on: TNF-α
Experiment: TNF-α ELISA with culture of LPS-stimulated PBMC-derived monocytes
Type: cell-based, human
Conditions: monocytes stimulated with LPS 10 ng/ml 2 hrs, starved 1 hr, 4 uM treated for 2 hrs, cell culture medium
Protocol: PBMC (peripheral blood mononuclear cell) was separated from the blood samples (50 ml) collected from healthy subjects using Ficoll-Paque™ PLUS (GE Healthcare Life Sciences, Piscataway, N.J., USA). PBMCs were then enriched in complete RPMI 1640 medium containing 20% of human serum, followed by transferring to 100 mm polystyrene cell culture plate coated with human serum for 30 mins. […]
To investigate the effect of PEP-1 on TNF-α level in terms of protein expression level, ELISA (enzyme linked immunosorbent assay) was performed. […] After culturing, cell soup was collected, and the amount of TNF-α was measured using ELISA kit (R&D, Minneapolis, Minn., USA) as follows.
TNF measurement uses sandwich ELISA method. […] Again, plate was washed, and avidin/biotin was added for measuring the absorbance. TNF-α level of each sample was quantified using the standard graph calculated from the absorbance of standard solution.
PBMC-derived monocytes were stimulated with endotoxin LPS (10 ng/ml) for 2 hrs, starved for 1 hr using OPTI-MEM, and then 4 uM of FITC, FITC-TAT, PEP 1-FITC and FITC-PEP 1 were treated for 2 hrs. After incubation, TNF-α level was measured with cell culture medium using ELISA.

Substance: Fluorescein Isothiocyanate [FITC]
- TNF-α level: 6.2 ng/mL

Reference: patent publication US9907837B2, “Composition for preventing or treating cachexia” (GemVax & KAEL Co., Ltd., priority 2012, dated 2018)
